Patent publication US20230165831A1, “METHOD AND COMPOSITION FOR RENDERING CANCER CELLS SUSCEPTIBLE TO TREATMENT BY TARGETED ONCOGENETIC DRIVERS” (IMPACT BIOLIFE SCIENCE, INC., priority 2021, published 2023)
Read-outs that look alike come from different tables or passages of the source.

Columns and labels:
[1] = system: kidney cancer line 786-O cells; assay: CTG (CellTiter-Glo) cell viability assay, 6×6 combo matrix, 72 h, 786-O; details: for Relatively Cell inhibition of vehicle control(%): 786-O;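 as to all read-outs here: luminescence read-out after adding CellTiter-Glo reagent, with cells incubated at 37 °C under 5% CO2 during compound exposure, part of a ten cell line synergy study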
Protocol: (§1) To measure the cell inhibition effect of compounds and synergy effect of test articles on ten (10) cell lines using standard CTG assay.
(§2) 7) Using complete cell medium, adjust the volume of the suspension to achieve a cell concentration.
(§3) b. A549, T47D, SK-OV-3, MKN45, SK-Hep-1, HT-29, Capan-1, 786-O and LNCaP cell line, for compounds and vehicle groups, the seeding density of cell lines is 3000 cells/80 µL per well. For blank groups, add 100 µL medium. For PBS groups, add 100 µL PBS.
(§4) 8) Incubate the U87MG, A549, T47D, SK-OV-3, MKN45, SK-Hep-1, HT-29, Capan-1, 786-O and LNCaP cells overnight at 37° C./5% CO2.
(§5) Solid compound of cis-platinum was solubilized in PBS to a stock solution of 3.333 mM.
(§6) Final volume is 100 µL per well at this point.
(§7) 5) Incubate the plates at 37° C./5% CO2 for 72 hours.
(§8) 1) Incubate the plates at room temperature and away from light for 30 minutes.
(§9) 3) Add 100 µL /well of CellTiter-Glo® Reagent in each well. Avoid light.
(§10) 4) Mix contents for 2 minutes on an orbital shaker.
(§11) 5) Incubate plate at room temperature for 10 minutes to stabilize the luminescent signal.
6) Read plates in Envision.

[2] = system: gastric cancer line MKN45 cells; assay: CTG (CellTiter-Glo) cell viability assay, 6×6 combo matrix, 72 h, MKN45;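 also: MKN45 cell viability read as CellTiter-Glo luminescence after 72 h culture at 37 °C under 5% CO2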
Protocol: as §1, §2
(§12) A549, T47D, SK-OV-3, MKN45, SK-Hep-1, HT-29, Capan-1, 786-O and LNCaP cell line, for compounds and vehicle groups, the seeding density of cell lines is 3000 cells/80 µL per well. For blank groups, add 100 µL medium. For PBS groups, add 100 µL PBS.
as §4, §5, §6, §7, §8, §9, §10, §11
6) Read plates in Envision.

[3] = system: Liver cancer line SK-HEP-1 cells; assay: CTG (CellTiter-Glo) cell viability assay, 6×6 combo matrix, 72 h, SK-Hep-1; details: Homo sapiens;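 also: luminescent signal read after 72 h compound exposure at 37 °C under 5% CO2, with medium-only wells serving as blank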
Protocol: as §1, §2, §3, §4, §5, §6, §7, §8, §9, §10, §11
6) Read plates in Envision.

[4] = system: kidney cancer line 786-O cells;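 also: luminescence read-out after adding CellTiter-Glo reagent, with cells incubated at 37 °C under 5% CO2 during compound exposure, part of a ten cell line synergy study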
Protocol: as §1, §2, §3, §4, §5, §6, §7, §8, §9, §10, §11
6) Read plates in Envision.

[5] = system: prostate adenocarcinoma line LNCap cells;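 also: luminescence signal read after adding CellTiter-Glo reagent, with cells exposed to compounds for 72 h at 37 °C under 5% CO2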
[6] = system: colorectal cancer line HT29 cells; assay: CTG (CellTiter-Glo) cell viability assay, 6×6 combo matrix, 72 h, HT29; details: for Relatively Cell inhibition of vehicle control(%): HT29;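 as to all read-outs here: cells exposed to compounds for 72 hours at 37 °C under 5% CO2, then viability read as luminescence after adding CellTiter-Glo Reagent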
Protocol: as §1, §2, §3, §4, §5, §6, §7, §8, §9, §10, §11
6) Read plates in Envision.

[7] = system: pancreatic cancer line Capan-1 cells; assay: CTG (CellTiter-Glo) cell viability assay, 6×6 combo matrix, 72 h, Capan-1; assay type: cell-based; details: for Relatively Cell inhibition of vehicle control(%): Capan-1
Method in brief: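 Capan-1 cells were seeded at 3000 cells per well and incubated overnight at 37 °C/5% CO2. They were then treated with compounds in a 6×6 combination matrix for 72 h at 37 °C/5% CO2. Viability was read by CellTiter-Glo luminescence to assess inhibition and synergy.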

[8] = system: ovarian cancer line SK-OV3 cells;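 also: luminescent signal read after CellTiter-Glo addition, cells exposed to compounds for 72 h at 37 °C under 5% CO2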
Protocol: as §1, §2, §12, §4, §5, §6, §7, §8, §9, §10, §11
6) Read plates in Envision.

[9] = system: Liver cancer line SK-HEP-1 cells;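 also: luminescent signal read after 72 h compound exposure at 37 °C under 5% CO2, with medium-only wells serving as blank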
Protocol: as §1, §2, §3, §4, §5, §6, §7, §8, §9, §10, §11
6) Read plates in Envision.

[10] = system: ovarian cancer line SK-OV3 cells; assay: CTG (CellTiter-Glo) cell viability assay, 6×6 combo matrix, 72 h, SK-OV-3; details: SK-OV-3;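 also: luminescent signal read after CellTiter-Glo addition, cells exposed to compounds for 72 h at 37 °C under 5% CO2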
Protocol: as §1, §2, §12, §4, §5, §6, §7, §8, §9, §10, §11
6) Read plates in Envision.

[11] = system: glioblastoma line U87MG cells; assay: CTG (CellTiter-Glo) cell viability assay, 6×6 combo matrix, 72 h, U87MG; details: Homo sapiens, U-87 MG;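 also: U87MG cells seeded at 2000 per well, exposed 72 h, viability read by CellTiter-Glo luminescence, inhibition expressed relative to vehicle-treated wells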
[12] = system: breast cancer line T47D cells;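 also: luminescence read-out after 72 h at 37 °C under 5% CO2, with medium-only wells as blanks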
Protocol: as §1, §2, §3, §4, §5, §6, §7, §8, §9, §10, §11
6) Read plates in Envision.

[13] = system: breast cancer line T47D cells; assay: CTG (CellTiter-Glo) cell viability assay, 6×6 combo matrix, 72 h, T47D; details: Homo sapiens;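 also: luminescence read-out after 72 h at 37 °C under 5% CO2, with medium-only wells as blanks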
Protocol: as §1, §2, §3, §4, §5, §6, §7, §8, §9, §10, §11
6) Read plates in Envision.

[14] = Homo sapiens, 786-0, read-out: Relatively Cell inhibition of vehicle control
[15] = Homo sapiens, HT-29, read-out: Relatively Cell inhibition of vehicle control(%)

## CC(=O)O[C@H]1C(=O)[C@@]2(C)[C@H]([C@H](OC(=O)c3ccccc3)[C@]3(O)C[C@H](OC(=O)[C@H](O)[C@@H](NC(=O)c4ccccc4)c4ccccc4)C(C)=C1C3(C)C)[C@]1(OC(C)=O)CO[C@@H]1C[C@@H]2O [taxol, paclitaxel]
[1]; [14]
  inhibition at 0.008 µM: 12.2%
  inhibition at 0.04 µM: 42.6%
  inhibition at 0.2 µM: 70%
  inhibition at 1 µM: 74.1%
[1]; Tax 8 nM only (LB-1 0)
  Relatively Cell inhibition of vehicle control(%): 12.57%
[1]; Tax 40 nM only (LB-1 0)
  Relatively Cell inhibition of vehicle control(%): 43.18%
[1]; Tax 200 nM only (LB-1 0)
  Relatively Cell inhibition of vehicle control(%): 69.53%
[1]; Tax 1000 nM only (LB-1 0)
  Relatively Cell inhibition of vehicle control(%): 73.05%
[2]; Tax 8 nM only (LB-1 0)
  Relatively Cell inhibition of vehicle control(%): 52.04%
[2]; Tax 8 nM only (Myr 0)
  Relatively Cell inhibition of vehicle control(%): 50.47%
[2]; Tax 40 nM only (LB-1 0)
  Relatively Cell inhibition of vehicle control(%): 48.11%
[2]; Tax 40 nM only (Myr 0)
  Relatively Cell inhibition of vehicle control(%): 56.30%
[2]; Tax 200 nM only (LB-1 0)
  Relatively Cell inhibition of vehicle control(%): 64.94%
[2]; Tax 200 nM only (Myr 0)
  Relatively Cell inhibition of vehicle control(%): 68.16%
[2]; Tax 1000 nM only (LB-1 0)
  Relatively Cell inhibition of vehicle control(%): 70.65%
[2]; Tax 1000 nM only (Myr 0)
  Relatively Cell inhibition of vehicle control(%): 69.93%
[3]; SK-HEP1, read-out: Relatively Cell inhibition of vehicle control, taxol 8 nM only (LB-1 table)
  inhibition at 0.008 µM: 30.6%
[3]; SK-HEP1, read-out: Relatively Cell inhibition of vehicle control, taxol 8 nM only (myricetin table)
  inhibition at 0.008 µM: 36%
[3]; SK-HEP1, read-out: Relatively Cell inhibition of vehicle control, taxol 40 nM only (LB-1 table)
  inhibition at 0.04 µM: 59.5%
[3]; SK-HEP1, read-out: Relatively Cell inhibition of vehicle control, taxol 40 nM only (myricetin table)
  inhibition at 0.04 µM: 62.4%
[3]; SK-HEP1, read-out: Relatively Cell inhibition of vehicle control, taxol 200 nM only (LB-1 table)
  inhibition at 0.2 µM: 68.8%
[3]; SK-HEP1, read-out: Relatively Cell inhibition of vehicle control, taxol 200 nM only (myricetin table)
  inhibition at 0.2 µM: 65.2%
[3]; SK-HEP1, read-out: Relatively Cell inhibition of vehicle control, taxol 1000 nM only (LB-1 table)
  inhibition at 1 µM: 78%
[3]; SK-HEP1, read-out: Relatively Cell inhibition of vehicle control, taxol 1000 nM only (myricetin table)
  inhibition at 1 µM: 78.8%
[4]
  inhibition: 3.15%
[5]
  inhibition: 9.88%
[6]; [15]
  inhibition at 0.008 µM: 67.9%
  inhibition at 0.04 µM: 83.4%
  inhibition at 0.2 µM: 83.1%
  inhibition at 1 µM: 82%
[6]; Tax 8 nM only (Myr 0)
  Relatively Cell inhibition of vehicle control(%): 73.73%
[6]; Tax 40 nM only (Myr 0)
  Relatively Cell inhibition of vehicle control(%): 80.46%
[6]; Tax 200 nM only (Myr 0)
  Relatively Cell inhibition of vehicle control(%): 81.35%
[6]; Tax 1000 nM only (Myr 0)
  Relatively Cell inhibition of vehicle control(%): 79.03%
[7]; Homo sapiens, CAPAN-1, taxol 1.6 nM only, read-out: Relatively Cell inhibition of vehicle control
  inhibition at […]: 17.2%
[7]; Homo sapiens, CAPAN-1, taxol 8 nM only, read-out: Relatively Cell inhibition of vehicle control
  inhibition at 0.008 µM: 54.3%
[7]; Homo sapiens, CAPAN-1, taxol 40 nM only, read-out: Relatively Cell inhibition of vehicle control
  inhibition at 0.04 µM: 65.8%
[7]; Homo sapiens, CAPAN-1, taxol 200 nM only, read-out: Relatively Cell inhibition of vehicle control
  inhibition at 0.2 µM: 65.4%
[7]; Homo sapiens, CAPAN-1, taxol 1000 nM only, read-out: Relatively Cell inhibition of vehicle control
  inhibition at 1 µM: 67.2%
[7]; Tax 8 nM only
  Relatively Cell inhibition of vehicle control(%): 51.97%
[7]; Tax 40 nM only
  Relatively Cell inhibition of vehicle control(%): 62.89%
[7]; Tax 200 nM only
  Relatively Cell inhibition of vehicle control(%): 63.24%
[7]; Tax 1000 nM only
  Relatively Cell inhibition of vehicle control(%): 64.00%
[8]
  inhibition: 17.4%
[9]
  inhibition: 0.78%
[10]; Tax 8 nM only (LB-1 matrix)
  Relatively Cell inhibition of vehicle control(%): 41.59%
[10]; Tax 8 nM only (myricetin matrix)
  Relatively Cell inhibition of vehicle control(%): 39.88%
[10]; Tax 40 nM only (LB-1 matrix)
  Relatively Cell inhibition of vehicle control(%): 54.31%
[10]; Tax 40 nM only (myricetin matrix)
  Relatively Cell inhibition of vehicle control(%): 52.55%
[10]; Tax 200 nM only (LB-1 matrix)
  Relatively Cell inhibition of vehicle control(%): 71.38%
[10]; Tax 200 nM only (myricetin matrix)
  Relatively Cell inhibition of vehicle control(%): 68.68%
[10]; Tax 1000 nM only (LB-1 matrix)
  Relatively Cell inhibition of vehicle control(%): 76.39%
[10]; Tax 1000 nM only (myricetin matrix)
  Relatively Cell inhibition of vehicle control(%): 73.38%
[11]; 72 h, read-out: Relatively Cell inhibition of vehicle control(%), U87MG, 8 nM taxol only (LB-1 0), 72 h
  inhibition at 0.008 µM: 42.7%
[11]; 72 h, read-out: Relatively Cell inhibition of vehicle control(%), U87MG, 40 nM taxol only (LB-1 0), 72 h
  inhibition at 0.04 µM: 53.9%
[11]; 72 h, read-out: Relatively Cell inhibition of vehicle control(%), U87MG, 200 nM taxol only (LB-1 0), 72 h
  inhibition at 0.2 µM: 67.8%
[11]; 72 h, read-out: Relatively Cell inhibition of vehicle control(%), U87MG, 1000 nM taxol only (LB-1 0), 72 h
  inhibition at 1 µM: 66.2%
[11]; read-out: Relatively Cell inhibition of vehicle control(%), taxol 8 nM only
  inhibition at 0.008 µM: 46.5%
[11]; read-out: Relatively Cell inhibition of vehicle control(%), taxol 40 nM only
  inhibition at 0.04 µM: 60.6%
[11]; read-out: Relatively Cell inhibition of vehicle control(%), taxol 200 nM only
  inhibition at 0.2 µM: 72.2%
[11]; read-out: Relatively Cell inhibition of vehicle control(%), taxol 1000 nM only
  inhibition at 1 µM: 69.8%
[12]
  inhibition: 17%
[13]; read-out: Relatively Cell inhibition of vehicle control(%), T47D, 8 nM taxol only (LB-1 0)
  inhibition at 0.008 µM: 33.2%
[13]; read-out: Relatively Cell inhibition of vehicle control(%), T47D, 8 nM taxol only (myricetin 0)
  inhibition at 0.008 µM: 40.8%
[13]; read-out: Relatively Cell inhibition of vehicle control(%), T47D, 40 nM taxol only (LB-1 0)
  inhibition at 0.04 µM: 42.2%
[13]; read-out: Relatively Cell inhibition of vehicle control(%), T47D, 40 nM taxol only (myricetin 0)
  inhibition at 0.04 µM: 48.6%
[13]; read-out: Relatively Cell inhibition of vehicle control(%), T47D, 200 nM taxol only (LB-1 0)
  inhibition at 0.2 µM: 42%
[13]; read-out: Relatively Cell inhibition of vehicle control(%), T47D, 200 nM taxol only (myricetin 0)
  inhibition at 0.2 µM: 48.5%
[13]; read-out: Relatively Cell inhibition of vehicle control(%), T47D, 1000 nM taxol only (LB-1 0)
  inhibition at 1 µM: 38%
[13]; read-out: Relatively Cell inhibition of vehicle control(%), T47D, 1000 nM taxol only (myricetin 0)
  inhibition at 1 µM: 45.8%
